# Key:
# [1] = test system: Mycobacterium tuberculosis; assay: Antimycobacterial activity against GFP-fused Mycobacterium tuberculosis H37Rv in liquid broth culture medium; format: functional
# [2] = test system: Mycobacterium tuberculosis; assay: Antimycobacterial activity against GFP-fused Mycobacterium tuberculosis H37Rv infected in macrophages; format: functional
# [3] = Half life in mouse at 2 mg/kg, iv; format: ADME, organism-based; details: in vivo
# [4] = Clearance in mouse at 2 mg/kg, iv; format: ADME, organism-based; details: in vivo
# [5] = Volume of distribution at steady state in mouse at 2 mg/kg, iv; format: ADME, organism-based; details: in vivo, read-out: Vdss
# [6] = Cmax in mouse at 10 mg/kg, po; format: ADME, organism-based; parameters: dose 10 mg/kg, route oral; details: in vivo
# [7] = Half life in mouse at 10 mg/kg, po; format: ADME, organism-based; details: in vivo
# [8] = Tmax in mouse at 10 mg/kg, po; format: ADME, organism-based; details: in vivo
# [9] = AUC (0 to infinity) in mouse at 10 mg/kg, po; format: ADME, organism-based; parameters: dose 10 mg/kg, route oral, time infinity; details: in vivo
# [10] = Oral bioavailability in mouse at 10 mg/kg; format: ADME, organism-based; details: in vivo
compound,measurement,setting,value
CCc1nc2cc(Cl)ccn2c1C(=O)NCc1ccc(N2CCC(Cc3ccccc3)CC2)cc1,MIC80,[1],0.022 µM
CCc1nc2cc(Cl)ccn2c1C(=O)NCc1ccc(OCc2ccc(F)cc2)cc1,MIC80,[1],0.02 µM
CCc1nc2cc(Cl)ccn2c1C(=O)NCc1ccc(Oc2ccc(OC(F)(F)F)cc2)cc1,MIC80,[1],0.064 µM
same,MIC80,[2],0.027 µM
CCc1nc2cc(Cl)ccn2c1C(=O)NCc1ccc(Nc2ccc(OC(F)(F)F)cc2)cc1,MIC80,[1],0.839 µM
CCc1nc2ccc(Cl)cn2c1C(=O)NCc1ccc(N2CCN(Cc3ccc(OC(F)(F)F)cc3)CC2)cc1,MIC80,[1],0.015 µM
same,MIC80,[2],0.082 µM
CCc1nc2ccccn2c1C(=O)NCc1ccc(OCc2ccc(OC(F)(F)F)cc2)cc1,MIC80,[1],0.027 µM
CCc1nc2ccc(Cl)cn2c1C(=O)NCc1ccc(N2CCC(Oc3ccc(OC(F)(F)F)cc3)CC2)cc1,MIC80,[1],0.007 µM
CCc1nc2cc(Cl)ccn2c1C(=O)NCc1ccc(N2CCC(Oc3ccc(OC(F)(F)F)cc3)CC2)cc1,MIC80,[1],0.021 µM
CCc1nc2ccc(Cl)cn2c1C(=O)NCc1ccc(N2CCN(C(=O)Cc3ccc(F)cc3)CC2)cc1,MIC80,[1],0.373 µM
CCc1nc2ccc(Cl)cn2c1C(=O)NCc1ccc(N2CCN(C(=O)c3ccc(F)cc3)CC2)cc1,MIC80,[1],0.534 µM
CCc1nc2ccc(Cl)cn2c1C(=O)NCc1ccc(N2CCC(Oc3ccc(F)cc3)CC2)cc1,MIC80,[1],0.01 µM
CCc1nc2cc(Cl)ccn2c1C(=O)NCc1ccc(NCc2ccc(OC(F)(F)F)cc2)cc1,MIC80,[1],0.25 µM
"CCc1nc2ccc(Cl)cn2c1C(=O)NCc1ccc(N2CCC(Oc3ccc(Cl)cc3)C2)cc1 (single isomer, unassigned; 41)",MIC80,[1],0.014 µM
CCc1nc2ccc(Cl)cn2c1C(=O)NCc1ccc(N2CCC(Oc3ccc(Cl)cc3)CC2)cc1,MIC80,[1],0.003 µM
same,MIC80,[2],< 0.001 µM
same,half-life,[3],14.1 h
same,clearance,[4],0.17 L/h/kg
same,Vd,[5],1.34 L/kg
same,Cmax,[6],3.54 µg/mL
same,half-life,[7],18.9 h
same,Tmax,[8],2 h
same,AUC(0-inf),[9],30.3 µg·h/mL
same,bioavailability,[10],51.4%
CCc1nc2ccc(Cl)cn2c1C(=O)NCc1ccc(N2CCC(Oc3ccc(C(F)(F)F)cc3)CC2)cc1,MIC80,[1],0.026 µM
same,MIC80,[2],0.009 µM
same,half-life,[3],19.6 h
same,clearance,[4],0.134 L/h/kg
same,Vd,[5],2.39 L/kg
same,Cmax,[6],4.1 µg/mL
same,half-life,[7],20 h
same,Tmax,[8],2 h
same,AUC(0-inf),[9],48.9 µg·h/mL
same,bioavailability,[10],65.6%
NNC(=O)c1ccncc1 [ISONIAZID],MIC80,[1],0.49 µM
same,MIC80,[2],0.2 µM
CCc1nc2cc(Cl)ccn2c1C(=O)NCc1ccc(N(C)c2ccc(OC(F)(F)F)cc2)cc1,MIC80,[1],0.04 µM
same,MIC80,[2],0.023 µM
CCc1nc2cc(Cl)ccn2c1C(=O)NCc1ccc(OCc2ccc(OC(F)(F)F)cc2)cc1,MIC80,[1],0.015 µM
same,MIC80,[2],< 0.001 µM
same,half-life,[3],13.9 h
same,clearance,[4],0.346 L/h/kg
same,Vd,[5],4.68 L/kg
same,Cmax,[6],1.64 µg/mL
same,half-life,[7],11.9 h
same,Tmax,[8],0.5 h
same,AUC(0-inf),[9],11.5 µg·h/mL
same,bioavailability,[10],53.4%
CCc1nc2ccc(Br)cn2c1C(=O)NCc1ccc(OCc2ccc(OC(F)(F)F)cc2)cc1,MIC80,[1],0.432 µM
CCc1nc2ccc(F)cn2c1C(=O)NCc1ccc(OCc2ccc(OC(F)(F)F)cc2)cc1,MIC80,[1],0.084 µM
same,MIC80,[2],0.028 µM
same,half-life,[3],11 h
same,clearance,[4],0.286 L/h/kg
same,Vd,[5],3.85 L/kg
same,Cmax,[6],2.62 µg/mL
same,half-life,[7],11.4 h
same,Tmax,[8],1 h
same,AUC(0-inf),[9],28.2 µg·h/mL
same,bioavailability,[10],80.5%
CCc1nc2ccc(Cl)cn2c1C(=O)NCc1ccc(N2CCC(COc3ccc(OC(F)(F)F)cc3)CC2)cc1,MIC80,[1],0.037 µM
"CCc1nc2ccc(Cl)cn2c1C(=O)NCc1ccc(N2CCC(Oc3ccc(Cl)cc3)C2)cc1 (single isomer, unassigned; 40)",MIC80,[1],0.006 µM
CCc1nc2ccc(Cl)cn2c1C(=O)NCc1ccc(OCc2ccc(OC(F)(F)F)cc2)cc1,MIC80,[1],0.015 µM

# From ChEMBL document CHEMBL3877282, “Synthesis and structure-activity studies of side chain analogues of the anti-tubercular agent, Q203” (Eur J Med Chem, 2017)
